In PMC10330721, “Chemo-enzymatic synthesis and biological activity evaluation of propenylbenzene derivatives” (Frontiers in Microbiology, 2023):
≈ marks a conversion by molar mass, not a printed value. Where two headings read alike, the source gives them in different places.

What was measured:
C. albicans strains = experiment: Fungistatic activity assay, broth microdilution, values given over several strains; format: cell-based, Candida albicans; details: Candida albicans
Description: (§1) Fungistatic activity was determined using Candida albicans ATCC 90028 from the American Type Culture Collection (ATCC, Manassas, VA, United States), and clinical isolates, C. albicans 636/20, C. albicans 595/20, and C. albicans 38 obtained from Wrocław Medical University, Wrocław, Poland.
(§2) All compounds were tested for biological activity against C. albicans ATTC 90028, C. albicans 636/20, C. albicans 595/20, and C. albicans 38 using the broth microdilution method. YPD medium (20 g glucose, 20 g Bacto Peptone, 10 g yeast extract, and 1 L of distilled water, pH 6.5) was used for the tests. The compound solutions were prepared in DMSO and diluted in YPD to obtain final concentrations in the range of 10–250 μg/mL. One hundred microlitres of each solution was pipetted into the wells of a 96-well microtiter plate. The inoculum was standardized to 0.5 McFarland standard and then diluted to obtain a final suspension with a cell density of 0.5–2.5 × 10^3 CFU/mL. The inoculum size was 100 μL. The positive control comprised DMSO added in the same concentration as the tested compounds in the inoculum, whereas the negative control consisted of DMSO diluted in the broth without the addition of inoculum. The microtiter plates were incubated in a Biosan PST-60 HL Plate Shaker-Thermostat (Riga, Latvia) at 35°C under shaking at 1,000 rpm for 24 h.

[1] = Haemolytic activity assay; format: cell-based; details: human red blood cells (RBCs) from healthy donors, 37°C, read-out: Percentage of haemolysis
Description: This test is based on comparison of the cytotoxicity of all tested compounds in human red blood cells (RBCs) with that in a control group. RBCs for this method were obtained from a blood center from examined and healthy donors. The compounds were tested at 10, 20, 40, 60, 80, and 100 μM concentrations. The control sample contained only ethanol in the same volume as the test samples. […] The samples were incubated at 37°C for 1 h. Then, the absorbance at 540 nm was measured using a UV–Vis spectrophotometer (Specord 40, Analytik Jena, Jena, Germany). The haemolytic activity of the compounds was determined as the ratio of the absorbance of haemoglobin in the test samples to that in completely haemolyzed cells multiplied by 100%.

RBCs membrane = experiment: Fluorescence spectroscopy of the RBCs membrane (DPH probe anisotropy); format: cell-based, human; details: for Change in DPH anisotropy / RBCs membrane fluidity (in words): RBCs, 20, 60 and 100 μM; for Fluorescence anisotropy of the DPH probe: membranes of RBCs, 37 °C
Description: Using the DPH probe, the anisotropy values of cell membranes of RBCs modified with the test compounds were measured. RBCs for this analysis were prepared according to the method described in subsection 2.5.3. Then, the DPH probe was added to RBCs with a haematocrit of 0.2%. The final concentration of the probe in the sample was 1.3 μM. The mixture was incubated protected from light at 37°C for 30 min. Then, the compounds dissolved in ethanol were added. The compounds were tested at 20, 60, and 100 μM concentrations. Samples with compounds and control samples with alcohol of the appropriate concentration were incubated at 37°C for 1 h. Measurements in triplicate were made in quartz cuvettes using a CARY Eclipse fluorimeter (Varian, San Diego, CA, United States) at 37°C. The excitation wavelength for the DPH probe is λexc = 360 nm and the emission wavelength is λem = 426 nm.

Caco-2 cells = experiment: Resazurin-based viability assay; format: cell-based, human; details: for Effect on Caco-2 proliferation / viability (in words): 24 h, 1, 50 and 200 μg/mL
Description: (§3) The human HepG2 and Caco-2 cell lines were obtained from the American Type Culture Collection (HB-8065™ and HTB-37™) and the MG-63 cell line was obtained from the European Collection of Authenticated Cell Cultures (Merck, Poznań, Poland). HepG2 cells were cultured in Dulbecco’s modified Eagle’s Medium - low glucose (Merck) supplemented with 10% foetal bovine serum (FBS) (Merck). Caco-2 cells were cultured in Dulbecco’s modified Eagle’s medium - high glucose (Merck) supplemented with 10% FBS, 2% HEPES buffer (Thermo Fisher Scientific, Warszawa, Poland), 1% Penicillin–Streptomycin-Amphotericin B Solution (100×, Merck), 1% MEM solution (100×, Thermo Fisher Scientific), and 1% Gentamycin Solution (10 mg/mL, Merck). MG-63 cells were cultured in Minimum Essential Medium (Merck) supplemented with 10% FBS. All cells were cultured in an atmosphere of 5% CO2 at 37°C.
(§4) HepG2, Caco-2, and […] were seeded in 96-well plates at 20,000 cells per well, and MG-63 cells at 10,000 cells per well, as described previously ([Marycz et al., 2012]; [Kornicka et al., 2017]). The tested compounds were dissolved in ethanol at 10 mg/mL. The concentrations were then adjusted to 1, 50, and 200 μg/mL in culture medium. Four controls were prepared: no ethanol added, and 0.01, 0.5, and 2% EtOH. The cells were treated with the compounds for 24 h. Then, cell viability was evaluated using the resazurin-based assay kit (TOX8), as described previously ([Grzesiak et al., 2011]; [Marycz et al., 2018]). The culture medium was replaced with medium containing 10% resazurin dye. The cells were incubated at 37°C in an atmosphere of 5% CO2 for 2 h. Absorbance levels were measured spectrophotometrically (Epoch) at a wavelengths of 600 nm for resazurin and 690 nm as a reference.

MG63 cells = experiment: Resazurin-based viability assay; format: cell-based, human; details: for Effect on MG63 proliferation / viability (in words): 24 h, 1, 50 and 200 μg/mL
Description: as §3, with “HepG2” for “The human HepG2 and Caco-2 cell lines were obtained from the American Type Culture Collection (HB-8065™ and HTB-37™) and the MG-63 cell line was obtained from the European Collection of Authenticated Cell Cultures (Merck, Poznań, Poland). HepG2”
The tested compounds were dissolved in ethanol at 10 mg/mL. The concentrations were then adjusted to 1, 50, and 200 μg/mL in culture medium. Four controls were prepared: no ethanol added, and 0.01, 0.5, and 2% EtOH. The cells were treated with the compounds for 24 h. […] The culture medium was replaced with medium containing 10% resazurin dye. The cells were incubated at 37°C in an atmosphere of 5% CO2 for 2 h. Absorbance levels were measured spectrophotometrically (Epoch) at a wavelengths of 600 nm for resazurin and 690 nm as a reference.

C. albicans 636/20 = experiment: Fungistatic activity assay, broth microdilution; format: cell-based; details: Candida albicans, 636/20, 24 h
Description: as §1, §2

C. albicans 595/20 = experiment: Fungistatic activity assay, broth microdilution; format: cell-based; details: Candida albicans
Description: as §1, §2

HepG2 cells = experiment: Resazurin-based viability assay; format: cell-based, human
Description: as §3, §4

C. albicans ATTC18804 = system: C. albicans ATTC18804; set-up: method as in Kubo et al., 1993; details: C. albicans ATTC18804 ref Kubo et al., 1993; cited from earlier work

Row | SMILES | hemolysis at 1 h, 10 µM [1] [%] | hemolysis at 1 h, 20 µM [1] [%] | hemolysis at 1 h, 40 µM [1] [%] | hemolysis at 1 h, 60 µM [1] [%] | hemolysis at 1 h, 80 µM [1] [%] | hemolysis at 1 h, 100 µM [1] [%] | Change in DPH anisotropy / RBCs membrane fluidity (in words) (RBCs membrane) | Fluorescence anisotropy of the DPH probe (RBCs membrane; 20 µM) | Fluorescence anisotropy of the DPH probe (RBCs membrane; 60 µM) | Fluorescence anisotropy of the DPH probe (RBCs membrane; 100 µM) | Effect on Caco-2 proliferation / viability (in words) (Caco-2 cells) | Effect on MG63 proliferation / viability (in words) (MG63 cells) | also measured
1 | COc1ccc(C(O)C(C)O)cc1OC (stereo not shown) [4b, 1-(3,4-dimethoxyphenyl)propane-1,2-diol] | 1.64 ± 0.127 | 1.52 ± 0.375 | 1.42 ± 0.074 | 1.2 ± 0.395 | 1.19 ± 0.04 | 2.06 ± 0.536 | increase in anisotropy | 0.289 ± 0.004 | 0.228 ± 0.095 | 0.290 ± 0.003 | strongest inhibition |  | MIC50 (C. albicans strains; C. albicans 636/20, 595/20, 38 and ATTC90028, read-out: MIC50 (over all tested strains)): 37 to 63 µg/mL (≈ 174 to 297 µM)
2 | COc1ccc(C(=O)C(C)O)cc1OC (stereo not shown) [4c, 1-(3,4-dimethoxyphenyl)-2-hydroxypropan-1-one] | 1.483 ± 0.007 | 1.93 ± 0.228 | 2.1 ± 0.395 | 1.77 ± 0.342 | 2.02 ± 0.047 | 2.445 ± 0.013 | a decrease in anisotropy | 0.257 ± 0.014 | 0.243 ± 0.019 | 0.263 ± 0.008 |  | promoted MGC63 proliferation | 
3 | CC(O)C(=O)c1ccc2c(c1)OCO2 (stereo not shown) [1c, 1-(1,3-benzodioxol-5-yl)-2-hydroxypropan-1-one] | 1.46 ± 0.08 | 1.17 ± 0.02 | 1.81 ± 0.302 | 1.85 ± 0.027 | 1.41 ± 0.295 | 1.51 ± 0.576 |  | 0.260 ± 0.011 | 0.267 ± 0.019 | 0.277 ± 0.078 |  | suppressed the proliferation | MIC50 (C. albicans 636/20): > 250 µg/mL; MIC50 (C. albicans strains; read-out: MIC50 (over three strains)): 178 to 200 µg/mL (≈ 917 to 1030 µM)
4 | CC(O)C(O)c1ccc2c(c1)OCO2 (stereo not shown) [1b, 1-(1,3-benzodioxol-5-yl)propane-1,2-diol] | 2.28 ± 0.251 | 1.86 ± 0.293 | 1.98 ± 0.272 | 1.88 ± 0.251 | 2.39 ± 0.349 | 2.58 ± 0.321 |  | 0.247 ± 0.018 | 0.274 ± 0.036 | 0.252 ± 0.012 | strongest inhibition |  | MIC50 (C. albicans 595/20; 595/20, 24 h): 107 µg/mL (≈ 545 µM); MIC50 (C. albicans 636/20): 177 µg/mL (≈ 902 µM)
5 | COc1cc(C(O)C(C)O)ccc1O (stereo not shown) [5b, 1-(4-hydroxy-3-methoxyphenyl)propane-1,2-diol] | 1.27 ± 0.094 | 1.55 ± 0.101 | 1.52 ± 0.181 | 1.62 ± 0.174 | 2.58 ± 0.288 | 1.98 ± 0.308 |  | 0.268 ± 0.025 | 0.277 ± 0.003 | 0.272 ± 0.058 |  | suppressed the proliferation | Effect on Caco-2 proliferative activity (in words) (Caco-2 cells; 24 h, 1 μg/mL): induced the proliferative activity; Effect on HepG2 proliferative activity (in words) (HepG2 cells; 24 h, 1 μg/mL): induced the proliferative activity; Effect on MG63 proliferative activity (in words) (MG63 cells; 24 h, 1 μg/mL): induced the proliferative activity; Effect on MG63 proliferative activity / viability (in words) (MG63 cells; 24 h, 50 μg/mL): significantly increased cell viability
6 | CC=Cc1ccc(OC)c(OC)c1 [4a, 1,2-dimethoxy-4-prop-1-en-1-yl benzene] | 1.76 ± 0.152 | 1.48 ± 0.173 | 1.67 ± 0.195 | 1.58 ± 0.18 | 2.48 ± 0.152 | 1.79 ± 0.159 |  | 0.264 ± 0.004 | 0.261 ± 0.008 | 0.269 ± 0.007 |  | promoted MGC63 proliferation | MIC50 (C. albicans strains; read-out: MIC50 (over all tested strains)): 39 to 67 µg/mL (≈ 219 to 376 µM); MIC (C. albicans ATTC18804): 400 µg/mL (≈ 2240 µM)
7 | COc1ccc(C(O)C(C)O)cc1 (stereo not shown) [3b, 1-(4-methoxyphenyl)propane-1,2-diol] | 2.45 ± 0.509 | 2.98 ± 0.153 | 1.9 ± 0.209 | 2.29 ± 0.635 | 2.4 ± 0.209 | 2.6 ± 0.265 | an increase in anisotropy at lower concentrations and a decrease at higher concentrations | 0.272 ± 0.019 | 0.249 ± 0.083 | 0.262 ± 0.056 | strongest inhibition | suppressed the proliferation | MIC50 (C. albicans 595/20; C. albicans 595/20, 24 h, 35°C, tested 10–250 μg/mL, read-out: MIC50): 47 µg/mL (≈ 258 µM); MIC50 (C. albicans strains; C. albicans 595/20, 636/20 and 38, read-out: MIC50 (over three strains)): 47 to 76 µg/mL (≈ 258 to 417 µM); Effect on HepG2 proliferation / viability (in words) (HepG2 cells; 24 h, 1, 50 and 200 μg/mL): significantly increased the proliferative potential
